Measurements from article PMC9639481, “Discovery of dual tubulin-NEDDylation inhibitors with antiproliferative activity” (Journal of Enzyme Inhibition and Medicinal Chemistry, 2022).

Assays:
tubulin [1] = tested on: T1, tubulin; test: in vitro tubulin polymerisation assay; supported by immunofluorescence of microtubules in HepG2 cells; type: biochemical
T1 construct: with alpha/beta-tubulin heterodimer

tubulin [2] = tested on: T1, tubulin; test: in vitro tubulin polymerisation assay; type: biochemical

SMILES	IC50 (tubulin [1]) [nM]	IC50 (tubulin [2]) [nM]
COc1ccc(CN(C(=O)CSC(=S)N2CCCCC2)c2cc(OC)c(OC)c(OC)c2)cc1 [C11, 2-((4-Methoxybenzyl)(3,4,5-trimethoxyphenyl)amino)-2-oxoethylpiperidine-1-carbodithioate]	2400	–
COc1ccc(CN(C(=O)CSC(=S)N2CC(C)CC(C)C2)c2cc(OC)c(OC)c(OC)c2)cc1 (centres unmarked) [C14, 2-((4-Methoxybenzyl)(3,4,5-trimethoxyphenyl)amino)-2-oxoethyl-3,5-dimethylpiperidine-1-carbodithioate]	–	> 4000
